Measurements reported in paper PMC5431190, “Investigation of cationicity and structure of pseudin-2 analogues for enhanced bacterial selectivity and anti-inflammatory activity” (Scientific Reports, 2017).

Assay: LPS neutralization (LAL assay)
Assay type: biochemical
Protocol: LPS neutralization by the peptides were measured using LAL-QCL-1000^TM (Lonza, USA) kit using a modified protocol as described previously. The interaction between each peptide and FITC-LPS was monitored according to the change in fluorescence intensity (excitation = 480 nm, emission = 515 nm). Peptides and 0.5 μg/ml FITC-LPS were prepared in 10 mM phosphate buffer (pH 6.0). The binding between rhTLR4 (from R&D systems, Minneapolis, USA) or rhMD2 (R&D systems, Minneapolis, USA) and peptides was determined using the BLItz system (ForteBio, Menlo Park, CA)[53]. A Ni-NTA sensor was used to detect rhTLR4 and rhMD2 binding. Before the binding assay, the biosensor was hydrated for 10 min in PBS. An initial baseline of 15 s, loading for 60 s, baseline for 30 s, association for 60 s and dissociation for 60 s were used for measurement.

LL-37
LPS neutralization (control peptide): high LPS neutralization
